Marks after values point to notes of the source that are not given here.
Assay: Measurement of LogP values by HPLC on reversed phase columns (EEC directive 79/831 Annex V.A8)
Format: physicochemical
In short: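 Following EEC directive 79/831 Annex V.A8, lipophilicity was derived from retention on reversed-phase HPLC columns. Separate values are given per diastereoisomer, and UV lambda-max (200–400 nm) was read at the peak signals.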

SMILES | LogP
COc1ccc(CNc2nsc(C(=O)N(C3CC3)C3CCCCC3(C)C)c2Cl)cc1 (stereo not shown) [I-860] | 5.31[a]
Nc1nsc(C(=O)Nc2ccc(F)cc2F)c1Cl [I-864] | 2.07[a]
Nc1nsc(C(=O)Nc2cc(F)cc(F)c2)c1Cl [I-866] | 2.54[a]
COc1ccc(CNc2nsc(C(=O)Nc3ccc(Cl)cc3Cl)c2Cl)cc1 [I-867] | 5.22[a]
COc1ccc(CNc2nsc(C(=O)Nc3ccc(Cl)cc3)c2Cl)cc1 [I-868] | 4.21[a]
COc1ccc(CNc2nsc(C(=O)N(Cc3ccccc3C(C)C)C3CC3)c2Cl)cc1 [I-871] | 4.71[a]
COc1ccc(CNc2nsc(C(=O)N(Cc3cc(C)cc(C)c3)C3CC3)c2Cl)cc1 [I-872] | 4.90[a]
CCc1ccccc1C(C)N(C(=O)c1snc(NCc2ccc(OC)cc2)c1Cl)C1CC1 (stereo not shown) [I-874] | 5.14[a]
CCC(c1ccccc1)N(C(=O)c1snc(NCc2ccc(OC)cc2)c1Cl)C1CC1 (stereo not shown) [I-875] | 4.85[a]
CC1OC(C)(C)c2cccc(NC(=O)c3snc(N)c3Cl)c21 (stereo not shown) [I-879] | 2.28[a]
COc1ccc(CNc2nsc(C(=O)Nc3cccc4c3C(C)CC4(C)C)c2Cl)cc1 (stereo not shown) [I-880] | 5.42[a]
COc1ccc(CNc2nsc(C(=O)Nc3ccc(C)c(Cl)c3)c2Cl)cc1 [I-882] | 4.63[a]
CNC(=O)c1snc(N)c1Cl [I-884] | 0.32[a]
CC1CC(C)(C)c2cccc(NC(=O)c3snc(N)c3Cl)c21 (stereo not shown) [I-885] | 3.62[a]
COc1ccc(CNc2nsc(C(=O)N(Cc3ccc(C)cc3C)C3CC3)c2Cl)cc1 [I-892] | 4.80[a]
COc1ccc(CNc2nsc(C(=O)N(Cc3ccccc3)C3CC3)c2Cl)cc1 [I-897] | 4.14[a]
CCCC(c1ccccc1)N(C(=O)c1snc(NCc2ccc(OC)cc2)c1Cl)C1CC1 (stereo not shown) [I-899] | 5.25[a]
COc1ccc(CNc2nsc(C(=O)N(CC(C)C)C3CC3)c2Cl)cc1 [I-900] | 4.09[a]
CCC(C)C(C)N(C(=O)c1snc(N)c1Cl)C1CC1 (stereo not shown) [I-901] | 3.00[a]
CC(C)CN(C(=O)c1snc(N)c1Cl)C1CC1 [I-902] | 2.25[a]

SMILES | LogP
O=C(Nc1ccc(Cl)cc1Cl)c1cc(N(Cc2ccccc2)Cc2ccccc2)ns1 [I-903] | 5.74[a]
O=C(NCCc1ncc(C(F)(F)F)cc1Cl)c1cc(N(Cc2ccccc2)Cc2ccccc2)ns1 [I-904] | 5.03[a]
O=C(c1cc(N(Cc2ccccc2)Cc2ccccc2)ns1)N(Cc1ccccc1)C1CC1 [I-910] | 5.36[a]
CC(c1cc(Cl)cc(Cl)c1)N(C(=O)c1cc(N(Cc2ccccc2)Cc2ccccc2)ns1)C1CC1 (stereo not shown) [I-912] | 6.54[a]
Cc1ccccc1NC(=O)c1snc(N)c1Cl [I-914] | 2.08[a]
COc1ccc(CNc2nsc(C(=O)N(c3cc(F)cc(F)c3)C3CC3)c2Cl)cc1 [I-918] | 4.10[a]
Cc1ccc(NC(=O)c2cc(N)ns2)cc1Cl [I-920] | 2.35[a]
Cc1ccc(NC(=O)c2snc(N)c2Cl)c(C)c1 [I-923] | 2.44[a]
Cc1cccc(NC(=O)c2snc(N)c2Cl)c1C [I-925] | 2.27[a]
Nc1nsc(C(=O)Nc2cccc3c2CCC3)c1Cl [I-926] | 2.75[a]
COc1ccc(CNc2nsc(C(=O)N(Cc3c(F)cccc3Cl)C3CC3)c2Cl)cc1 [I-933] | 4.44[a]
CCC(C)C(C)N(C(=O)c1cc(N(Cc2ccccc2)Cc2ccccc2)ns1)C1CC1 (stereo not shown) [I-938] | 5.97[a]
O=C(c1cc(N(Cc2ccccc2)Cc2ccccc2)ns1)N(Cc1c(Cl)cccc1Cl)C1CC1 [I-939] | 5.90[a]
O=C(c1cc(N(Cc2ccccc2)Cc2ccccc2)ns1)N(Cc1ccc(Cl)cc1Cl)C1CC1 [I-940] | 6.30[a]
CC(C)N(Cc1ccc(Cl)cc1Cl)C(=O)c1cc(N(Cc2ccccc2)Cc2ccccc2)ns1 [I-941] | 6.48[a]
CC1(C)CC1N(Cc1ccc(Cl)cc1Cl)C(=O)c1cc(N(Cc2ccccc2)Cc2ccccc2)ns1 (stereo not shown) [I-942] | 6.79[a]
O=C(c1cc(N(Cc2ccccc2)Cc2ccccc2)ns1)N(Cc1cc(Cl)cc(C(F)(F)F)c1)C1CC1 [I-943] | 6.16[a]
COc1ccc(CNc2nsc(C(=O)N(C3CC3)C(C)c3cccc(C(F)(F)F)c3)c2Cl)cc1 (stereo not shown) [I-948] | 4.91[a]
COc1ccc(CNc2nsc(C(=O)N(C3CC3)C(C)c3ccccc3C(F)(F)F)c2Cl)cc1 (stereo not shown) [I-949] | 4.83[a]
Cc1ccc(NC(=O)c2snc(N(Cc3ccccc3)Cc3ccccc3)c2Br)cc1Cl [I-951] | 6.35[a]

Now from value to compound:

LogP | SMILES
3.85[a] | COc1ccc(CNc2nsc(C(=O)Nc3cccc(F)c3)c2Cl)cc1 [I-861]
4.15[a] | COc1ccc(CNc2nsc(C(=O)Nc3cc(F)cc(F)c3)c2Cl)cc1 [I-862]
3.30[a] | CC1(C)CCCCC1N(C(=O)c1snc(N)c1Cl)C1CC1 (stereo not shown) [I-863]
2.07[a] | Nc1nsc(C(=O)Nc2cccc(F)c2)c1Cl [I-865]
3.96[a] | COc1ccc(CNc2nsc(C(=O)Nc3cccc4c3C(C)OC4(C)C)c2Cl)cc1 (stereo not shown) [I-869]
4.94[a] | COc1ccc(CNc2nsc(C(=O)N(Cc3c(C)cc(C)cc3C)C3CC3)c2Cl)cc1 [I-870]
4.17[a] | COc1ccc(CNc2nsc(C(=O)N(C3CC3)C(C)c3ccccc3)c2Cl)cc1 (stereo not shown) [I-873]
4.77[a] | COc1ccc(CNc2nsc(C(=O)N(Cc3cc(C)ccc3C)C3CC3)c2Cl)cc1 [I-876]
4.07[a] | COc1ccc(CNc2nsc(C(=O)NCCc3ccccc3Cl)c2Cl)cc1 [I-877]
2.51[a] | Nc1nsc(C(=O)Nc2ccc(Cl)cc2)c1Cl [I-878]
3.62[a] | COc1ccc(CNc2nsc(C(=O)Nc3ccccc3C#N)c2Cl)cc1 [I-881]
1.86[a] | COc1ccc(CNc2nsc(C(=O)NS(C)(=O)=O)c2Cl)cc1 [I-883]
2.73[a] | CC(c1ccccc1)N(C(=O)c1snc(N)c1Cl)C1CC1 (stereo not shown) [I-886]
3.37[a] | CCc1ccccc1C(C)N(C(=O)c1snc(N)c1Cl)C1CC1 (stereo not shown) [I-887]
3.11[a] | CCC(c1ccccc1)N(C(=O)c1snc(N)c1Cl)C1CC1 (stereo not shown) [I-888]
5.11[a] | COc1ccc(CNc2nsc(C(=O)N(Cc3cc(C)c(C)cc3C)C3CC3)c2Cl)cc1 [I-889]
4.74[a] | CCc1ccccc1CN(C(=O)c1snc(NCc2ccc(OC)cc2)c1Cl)C1CC1 [I-890]
4.82[a] | COc1ccc(CNc2nsc(C(=O)N(Cc3c(C)cccc3C)C3CC3)c2Cl)cc1 [I-891]
4.67[a] | COc1ccc(CNc2nsc(C(=O)N(C3CCCCC3)C3CC3)c2Cl)cc1 [I-893]
4.85[a] | CCC(C)C(C)N(C(=O)c1snc(NCc2ccc(OC)cc2)c1Cl)C1CC1 (stereo not shown) [I-894]
2.41[a] | Nc1nsc(C(=O)NCCc2ccccc2Cl)c1Cl [I-895]
5.17[a] | CCc1cccc(C)c1CN(C(=O)c1snc(NCc2ccc(OC)cc2)c1Cl)C1CC1 [I-898]
4.26[a] | N#Cc1ccccc1NC(=O)c1cc(N(Cc2ccccc2)Cc2ccccc2)ns1 [I-905]
5.68[a] | Cc1ccc(NC(=O)c2cc(N(Cc3ccccc3)Cc3ccccc3)ns2)cc1Cl [I-906]
6.25[a] | Cc1cc(C)c(CN(C(=O)c2cc(N(Cc3ccccc3)Cc3ccccc3)ns2)C2CC2)c(C)c1 [I-907]
3.48[a] | CCCC(c1ccccc1)N(C(=O)c1snc(N)c1Cl)C1CC1 (stereo not shown) [I-908]

LogP | SMILES
2.28[a] | Nc1cc(C(=O)N(Cc2c(F)cccc2Cl)C2CC2)sn1 [I-909]
5.54[a] | O=C(c1cc(N(Cc2ccccc2)Cc2ccccc2)ns1)N(Cc1c(F)cccc1Cl)C1CC1 [I-911]
3.37[a] | Nc1nsc(C(=S)NCC2CCCCC2)c1Cl [I-913]
2.28[a] | Cc1cccc(NC(=O)c2snc(N)c2Cl)c1 [I-915]
2.27[a] | Cc1ccc(NC(=O)c2snc(N)c2Cl)cc1 [I-916]
2.21[a] | Nc1nsc(C(=O)N(c2ccc(F)cc2)C2CC2)c1Cl [I-917]
2.01[a] | Nc1cc(C(=O)NCCc2ncc(C(F)(F)F)cc2Cl)sn1 [I-919]
4.02[a] | COc1ccc(CNc2nsc(C(=O)N(c3ccc(F)cc3F)C3CC3)c2Cl)cc1 [I-921]
3.85[a] | COc1ccc(CNc2nsc(C(=O)N(c3ccc(F)cc3)C3CC3)c2Cl)cc1 [I-922]
2.05[a] | Cc1cccc(C)c1NC(=O)c1snc(N)c1Cl [I-924]
2.39[a] | Nc1nsc(C(=O)Nc2cccc3ccccc23)c1Cl [I-927]
5.36[a] | COc1ccc(CNc2nsc(C(=O)N(C3CC3)C(C)c3cc(Cl)cc(Cl)c3)c2Cl)cc1 (stereo not shown) [I-928]
4.80[a] | COc1ccc(CNc2nsc(C(=O)N(Cc3c(Cl)cccc3Cl)C3CC3)c2Cl)cc1 [I-929]
5.08[a] | COc1ccc(CNc2nsc(C(=O)N(Cc3ccc(Cl)cc3Cl)C3CC3)c2Cl)cc1 [I-930]
5.22[a] | COc1ccc(CNc2nsc(C(=O)N(C3CC3)C(C)c3ccc(Cl)cc3Cl)c2Cl)cc1 (stereo not shown) [I-931]
5.62[a] | CCC(c1ccc(Cl)cc1Cl)N(C(=O)c1snc(NCc2ccc(OC)cc2)c1Cl)C1CC1 (stereo not shown) [I-932]
5.56[a] | COc1ccc(CNc2nsc(C(=O)N(Cc3ccc(Cl)cc3Cl)C3CCC3)c2Cl)cc1 [I-934]
5.45[a] | COc1ccc(CNc2nsc(C(=O)N(Cc3ccc(Cl)cc3Cl)CC3CC3)c2Cl)cc1 [I-935]
5.81[a] | CCC(c1cc(Cl)cc(Cl)c1)N(C(=O)c1snc(NCc2ccc(OC)cc2)c1Cl)C1CC1 (stereo not shown) [I-936]
3.08[a] | CC(C)N(Cc1ccc(Cl)cc1Cl)C(=O)c1cc(N)ns1 [I-937]
5.39[a] | COc1ccc(CNc2nsc(C(=O)N(Cc3ccc(Cl)cc3Cl)C(C)C)c2Cl)cc1 [I-944]
5.87[a] | COc1ccc(CNc2nsc(C(=O)N(Cc3ccc(Cl)cc3Cl)C3CC3(C)C)c2Cl)cc1 (stereo not shown) [I-945]
4.91[a] | COc1ccc(CNc2nsc(C(=O)N(Cc3c(Cl)cccc3C(F)(F)F)C3CC3)c2Cl)cc1 [I-946]
5.11[a] | COc1ccc(CNc2nsc(C(=O)N(Cc3cc(Cl)cc(C(F)(F)F)c3)C3CC3)c2Cl)cc1 [I-947]
5.97[a] | O=C(NCCc1ncc(C(F)(F)F)cc1Cl)c1snc(N(Cc2ccccc2)Cc2ccccc2)c1Br [I-950]
